In ChEMBL document CHEMBL1201862, “PubChem BioAssay data set” (2004):
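Dose response: 5 concentrations. Exposure: 48 h. Format: 96-well plates. Endpoint: linear interpolation; highest concentration if not reached. GI50 is the concentration that inhibits growth by half.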 Active and inactive are the calls of the source. Rule as the data show it: active = GI50 up to about 1.1 µM and inactive = higher.

Legend:
Test in all cases: DTP human tumour cell line panel, 48 h
ACHN = test system: ACHN
K562 = test system: K562
MDA-MB-231 = test system: MDA-MB-231
NCI-H23 = test system: NCI-H23
EKVX = test system: EKVX
MCF7 = test system: MCF7
SW-620 = test system: SW-620
UACC-62 = test system: UACC-62
NCI-H226 = test system: NCI-H226
HCC 2998 = test system: HCC 2998
NCI-H522 = test system: NCI-H522
UACC-257 = test system: UACC-257
HL-60 = test system: HL-60
SK-MEL-2 = test system: SK-MEL-2
HCT-116 = test system: HCT-116
SF-539 = test system: SF-539
PC-3 = test system: PC-3
RPMI-8226 = test system: RPMI-8226
SK-MEL-5 = test system: SK-MEL-5
UO-31 = test system: UO-31

**Q.** For `C=CC(C)(C)c1c(OC)oc2ccc(OC)c(C)c2c1=O`, which GI50 (ACHN) is on record?
**A.** > 100 µM (inactive)

**Q.** And the GI50 (K562)?
**A.** 78.2 µM (inactive)

**Q.** And the GI50 (MDA-MB-231)?
**A.** > 100 µM (inactive)

**Q.** And the GI50 (NCI-H23)?
**A.** > 100 µM (inactive)

**Q.** What about the GI50 (EKVX) of the same compound?
**A.** > 100 µM (inactive)

**Q.** And the GI50 (MCF7)?
**A.** > 100 µM (inactive)

**Q.** And the GI50 (SW-620)?
**A.** > 100 µM (inactive)

**Q.** And the GI50 (UACC-62)?
**A.** > 100 µM (inactive)

**Q.** And the GI50 (NCI-H226)?
**A.** > 100 µM (inactive)

**Q.** What about the GI50 (HCC 2998) of the same compound?
**A.** > 100 µM (inactive)

**Q.** And the GI50 (NCI-H522)?
**A.** 98.2 µM (inactive)

**Q.** And the GI50 (UACC-257)?
**A.** > 100 µM (inactive)

**Q.** And the GI50 (HL-60)?
**A.** 70.6 µM (inactive)

**Q.** And the GI50 (SK-MEL-2)?
**A.** > 100 µM (inactive)

**Q.** And the GI50 (HCT-116)?
**A.** 89.7 µM (inactive)

**Q.** And the GI50 (SF-539)?
**A.** > 100 µM (inactive)

**Q.** What about the GI50 (PC-3) of the same compound?
**A.** 78.7 µM (inactive)

**Q.** And the GI50 (RPMI-8226)?
**A.** > 100 µM (inactive)

**Q.** And the GI50 (SK-MEL-5)?
**A.** 61.7 µM (inactive)

**Q.** What about the GI50 (UO-31) of the same compound?
**A.** > 100 µM (inactive)

**Q.** For `O=C(O)c1cnccc1-c1cc(=O)[nH]n1-c1ccccc1`, which GI50 (ACHN) is on record?
**A.** 35.8 µM (inactive)

**Q.** What about the GI50 (K562) of the same compound?
**A.** 10 µM (inactive)

**Q.** What about the GI50 (MDA-MB-231) of the same compound?
**A.** > 100 µM (inactive)

**Q.** And the GI50 (NCI-H23)?
**A.** 97.7 µM (inactive)

**Q.** And the GI50 (EKVX)?
**A.** > 53.1 µM (inactive)

**Q.** What about the GI50 (MCF7) of the same compound?
**A.** 43.2 µM (inactive)

**Q.** What about the GI50 (SW-620) of the same compound?
**A.** > 23.2 µM (inactive)

**Q.** And the GI50 (UACC-62)?
**A.** 17.4 µM (inactive)

**Q.** And the GI50 (NCI-H226)?
**A.** > 100 µM (inactive)

**Q.** What about the GI50 (HCC 2998) of the same compound?
**A.** 25 µM (inactive)

**Q.** And the GI50 (NCI-H522)?
**A.** > 63.4 µM (inactive)

**Q.** What about the GI50 (UACC-257) of the same compound?
**A.** 66.1 µM (inactive)

**Q.** What about the GI50 (HL-60) of the same compound?
**A.** 20.9 µM (inactive)

**Q.** And the GI50 (SK-MEL-2)?
**A.** > 63.2 µM (inactive)

**Q.** What about the GI50 (HCT-116) of the same compound?
**A.** 51.8 µM (inactive)

**Q.** What about the GI50 (SF-539) of the same compound?
**A.** 35.6 µM (inactive)

**Q.** And the GI50 (PC-3)?
**A.** 16.3 µM (inactive)

**Q.** And the GI50 (RPMI-8226)?
**A.** 48 µM (inactive)

**Q.** What about the GI50 (SK-MEL-5) of the same compound?
**A.** 52.4 µM (inactive)

**Q.** What about the GI50 (UO-31) of the same compound?
**A.** 27.9 µM (inactive)

**Q.** Which results are given for `CN(C)CCNc1ccc(C(=O)NCCCN(C)CCCNC(=O)c2ccc(NCCN(C)C)c3c(=O)c4ccccc4[nH]c23)c2[nH]c3ccccc3c(=O)c12`?
**A.** GI50 (ACHN): 0.0402 µM (active); GI50 (K562): 0.0332 µM (active); GI50 (MDA-MB-231): 0.024 µM (active); GI50 (NCI-H23): 0.0489 µM (active); GI50 (EKVX): 0.478 µM (active); GI50 (MCF7): < 0.01 µM (active); GI50 (SW-620): < 0.0113 µM (active); GI50 (UACC-62): 0.0349 µM (active); GI50 (NCI-H226): 0.0199 µM (active); GI50 (HCC 2998): 0.0246 µM (active); GI50 (NCI-H522): < 0.01 µM (active); GI50 (UACC-257): 0.968 µM (active); GI50 (HL-60): 0.155 µM (active); GI50 (SK-MEL-2): 0.0489 µM (active); GI50 (HCT-116): < 0.01 µM (active); GI50 (SF-539): < 0.01 µM (active); GI50 (PC-3): 0.0783 µM (active); GI50 (RPMI-8226): < 0.01 µM (active); GI50 (SK-MEL-5): 0.146 µM (active); GI50 (UO-31): 1.27 µM (inactive)

**Q.** With `C[N+](C)(CCNC(=O)c1cccc2cc3ccccc3nc12)Cc1ccc([N+](=O)[O-])cc1` as the compound, how does the GI50 (ACHN) read?
**A.** > 100 µM (inactive)

**Q.** And the GI50 (K562)?
**A.** > 100 µM (inactive)

**Q.** And the GI50 (MDA-MB-231)?
**A.** > 100 µM (inactive)

**Q.** And the GI50 (NCI-H23)?
**A.** > 100 µM (inactive)

**Q.** And the GI50 (EKVX)?
**A.** > 100 µM (inactive)

**Q.** And the GI50 (MCF7)?
**A.** > 100 µM (inactive)

**Q.** And the GI50 (SW-620)?
**A.** > 100 µM (inactive)

**Q.** And the GI50 (UACC-62)?
**A.** > 100 µM (inactive)

**Q.** And the GI50 (NCI-H226)?
**A.** > 100 µM (inactive)

**Q.** What about the GI50 (HCC 2998) of the same compound?
**A.** > 100 µM (inactive)

**Q.** What about the GI50 (NCI-H522) of the same compound?
**A.** > 100 µM (inactive)

**Q.** What about the GI50 (UACC-257) of the same compound?
**A.** > 100 µM (inactive)

**Q.** And the GI50 (HL-60)?
**A.** > 100 µM (inactive)

**Q.** And the GI50 (SK-MEL-2)?
**A.** > 100 µM (inactive)

**Q.** What about the GI50 (HCT-116) of the same compound?
**A.** > 100 µM (inactive)

**Q.** What about the GI50 (SF-539) of the same compound?
**A.** > 100 µM (inactive)

**Q.** What about the GI50 (PC-3) of the same compound?
**A.** > 100 µM (inactive)

**Q.** What about the GI50 (RPMI-8226) of the same compound?
**A.** > 100 µM (inactive)

**Q.** What about the GI50 (SK-MEL-5) of the same compound?
**A.** 50 µM (inactive)

**Q.** And the GI50 (UO-31)?
**A.** > 100 µM (inactive)

**Q.** For `NC(=O)c1cccc(/N=c2\oc3ccc(Br)cc3cc2-c2nc3ccccc3[nH]2)c1`, which GI50 (ACHN) is on record?
**A.** 17.3 µM (inactive)

**Q.** What about the GI50 (K562) of the same compound?
**A.** 18.8 µM (inactive)

**Q.** What about the GI50 (MDA-MB-231) of the same compound?
**A.** 7.55 µM (inactive)

**Q.** What about the GI50 (NCI-H23) of the same compound?
**A.** 16 µM (inactive)

**Q.** And the GI50 (EKVX)?
**A.** 13.9 µM (inactive)

**Q.** What about the GI50 (MCF7) of the same compound?
**A.** 12.9 µM (inactive)

**Q.** And the GI50 (SW-620)?
**A.** 15.3 µM (inactive)

**Q.** And the GI50 (UACC-62)?
**A.** 14.4 µM (inactive)

**Q.** And the GI50 (NCI-H226)?
**A.** 0.075 µM (active)

**Q.** And the GI50 (HCC 2998)?
**A.** 15.3 µM (inactive)

**Q.** And the GI50 (NCI-H522)?
**A.** 22.1 µM (inactive)

**Q.** And the GI50 (UACC-257)?
**A.** 20 µM (inactive)

**Q.** And the GI50 (HL-60)?
**A.** 18.1 µM (inactive)

**Q.** And the GI50 (SK-MEL-2)?
**A.** 19.9 µM (inactive)

**Q.** What about the GI50 (HCT-116) of the same compound?
**A.** 16.4 µM (inactive)

**Q.** What about the GI50 (SF-539) of the same compound?
**A.** 2.49 µM (inactive)

**Q.** And the GI50 (PC-3)?
**A.** 14.3 µM (inactive)

**Q.** What about the GI50 (RPMI-8226) of the same compound?
**A.** 5.87 µM (inactive)

**Q.** What about the GI50 (SK-MEL-5) of the same compound?
**A.** 1.81 µM (inactive)

**Q.** And the GI50 (UO-31)?
**A.** 7.76 µM (inactive)

**Q.** What does the source list for `CN(C)CCNc1ccc2c(=O)n(CCN(C)C)c(=O)n3c4ccc([N+](=O)[O-])cc4c(=O)c1c23`?
**A.** GI50 (ACHN): 0.146 µM (active); GI50 (K562): 0.063 µM (active); GI50 (MDA-MB-231): 0.429 µM (active); GI50 (NCI-H23): 0.177 µM (active); GI50 (EKVX): 0.55 µM (active); GI50 (MCF7): 0.0716 µM (active); GI50 (SW-620): 0.0524 µM (active); GI50 (UACC-62): 1.24 µM (inactive); GI50 (NCI-H226): 0.312 µM (active); GI50 (HCC 2998): 0.387 µM (active); GI50 (NCI-H522): 0.08 µM (active); GI50 (UACC-257): 0.728 µM (active); GI50 (HL-60): 0.157 µM (active); GI50 (SK-MEL-2): 0.397 µM (active); GI50 (HCT-116): 0.0769 µM (active); GI50 (SF-539): 0.277 µM (active); GI50 (PC-3): 0.482 µM (active); GI50 (RPMI-8226): 0.163 µM (active); GI50 (SK-MEL-5): 1.04 µM (active); GI50 (UO-31): 0.262 µM (active)
